Assay results: US11136308B2, “Substituted quinazoline and quinazolinone compounds and methods of use thereof” (Araxes Pharma LLC, priority 2017, dated 2021)

Each compound was assayed against T1, KRAS G12C 1-169, his-tagged protein, GDP-loaded (Homo sapiens, UniProt P01116, G12C) (assay: Biochemical assay: covalent binding to KRAS G12C measured by mass spectrometry (RapidFire/TOF or Q-Exactive)). Conditions: covalent binding to KRAS G12C after a thirty minute incubation period.
T1 construct: KRAS G12C 1-169, his-tagged protein, GDP-loaded; His tag
Experimental: Test compounds were prepared as 10 mM stock solutions in DMSO (Fisher cat #BP-231-100). KRAS G12C 1-169, his-tagged protein, GDP-loaded was diluted to 0.5 μM in buffer (20 mM Hepes, 150 mM NaCl, 1 mM MgCl2). Compounds were tested for activity as follows:
Compounds were diluted to 50× final test concentration in DMSO in 96-well storage plates. Compound stock solutions were vortexed before use and observed carefully for any sign of precipitation. Dilutions were as follow: • For 100 μM final compound concentration, compounds were diluted to 5000 μM (5 μL 10 mM compound stock+5 μL DMSO and mixed well by pipetting. • For 30 μM final compound concentration, compounds were diluted to 1500 μM (3 μL 10 mM compound stock+17 μL DMSO) and mixed well by pipetting. • For 10 μM final compound concentration, compounds were diluted to 500 μM (2 μL 10 mM compound stock+38 μL DMSO) and mixed well by pipetting. 49 μL of the stock protein solution was added to each well of a 96-well PCR plate (Fisher cat #1423027). 1 μl of the diluted 50× compounds were added to appropriate wells in the PCR plate using 12-channel pipettor. Reactions were mixed carefully and thoroughly by pipetting up/down with a 200 μL multi-channel pipettor. The plate was sealed well with aluminum plate seal, and stored in drawer at room temperature for 10 minutes, 30 minutes, 2 hours or 24 hours. 5 μL of 2% formic acid (Fisher cat #A117) in de-ionized H2O was then added to each well followed by mixing with a pipette. The plate was then resealed with aluminum seal and stored on dry ice until analyzed as described below.
The above described assays were analyzed by mass spectrometry according to one of the following two procedures:
The MS instrument is set to positive polarity, 2 GHz resolution, and low mass (1700) mode and allowed to equilibrate for 30 minutes. The instrument is then calibrated, switched to acquisition mode and the appropriate method loaded.
After another 30 minute equilibration time, a blank batch (i.e., buffer) is run to ensure equipment is operating properly. The samples are thawed at 37° C. for 10 minutes, briefly centrifuged, and transfer to the bench top. Wells A1 and H12 are spiked with 1 μL 500 μM internal standard peptide, and the plates centrifuged at 2000×g for 5 minutes. The method is then run and masses of each individual well recorded.
The masses (for which integration data is desired) for each well are pasted into the platemap and exported from the analysis. Masses for the internal standards are exported as well. The data at 50 ppm is extracted for the +19 charge state, and identity of well A1 is assigned using the internal standard spike and integrated. Peak data is exported as a TOF list and the above steps are repeated individually, for the +20, 21, 22, 23, 24, and 25 charge states.
The masses and peak intensities of KRAS G12C protein species were measured using a Dionex RSLCnano system (Thermo Scientific) connected to a Q Exactive Plus mass spectrometer (Thermo Scientific).
[…] of sample was each loaded onto a Aeris™ 3.6 μm WIDEPORE C4 200 Å, LC Column 50×2.1 mm column maintained at 40° C. at a flow rate of 600 μL/min with 20% Solvent A (0.1% formic acid in H2O) and 80% Solvent B (0.1% formic acid in acetonitrile). The liquid chromatography conditions were 20% solvent B for 1 minute, 20% to 60% solvent B for 1.5 minutes, 60% to 90% solvent for 0.5 minute, 90% solvent B for 0.2 minute, 90% to 20% solvent B for 0.2 minute, and then equilibrated for 1.6 minute before the following sample injection. The flow rate was maintained at 600 μL/min throughout the sample analysis.
The mass spectrometer was operated in profile mode at a resolution of 17500, 5 microscans, using 50 msec max injection time and an AGC target of 1×10^6, and a full mass range from 800-1850 m/z was recorded. The HCD trapping gas was optimized for maximum sensitivity for intact proteins. […]
`C=CC(=O)N1CC(c2nc3ccc(-c4c(C)ccc5[nH]ncc45)cc3c(=O)n2C)C1` [Compound 3, 2-(1-acryloylazetidin-3-yl)-3-methyl-6-(5-methyl-1H-indazol-4-yl)quinazolin-4(3H)-one] was tested, and the Binding % was “++ (++ indicates binding activity from 10 to 50%)”. With `C=CC(=O)N1CC(c2nc3ccc(-c4cc(O)cc5ccccc45)cc3c(=O)n2C)C1` [Compound 2, 2-(1-acryloylazetidin-3-yl)-6-(3-hydroxynaphthalen-1-yl)-3-methylquinazolin-4(3H)-one] the Binding % was “+++ (+++ indicates binding activity greater than 50%)”. For `C=CC(=O)N1CC(c2nc(NCC(=O)N3CC(N(C)C)C3)c3cc(-c4cc(O)cc5ccccc45)ccc3n2)C1` [Compound 21, 1-(3-(4-((2-(3-(dimethylamino)azetidin-1-yl)-2-oxoethyl)amino)-6-(3-hydroxynaphthalen-1-yl)quinazolin-2-yl)azetidin-1-yl)prop-2-en-1-one], the Binding % was “+ (+ indicates binding activity up to 10%)”. For `C=CC(=O)N1CC(c2nc3ccc(-c4cc(O)cc5ccccc45)cc3c(=O)n2CCCN(C)C)C1` [Compound 4, 2-(1-acryloylazetidin-3-yl)-3-(3-(dimethylamino)propyl)-6-(3-hydroxynaphthalen-1-yl)quinazolin-4(3H)-one], the Binding % was “+++ (+++ indicates binding activity greater than 50%)”. `C=CC(=O)N1CC(c2nc(-n3ccnc3)c3cc(-c4cc(O)cc5ccccc45)ccc3n2)C1` [Compound 30, 1-(3-(6-(3-hydroxynaphthalen-1-yl)-4-(1H-imidazol-1-yl)quinazolin-2-yl)azetidin-1-yl)prop-2-en-1-one] was tested, and the Binding % was “+ (+ indicates binding activity up to 10%)”. In the case of `C=CC(=O)N1CC(c2nc(N3CC(N(C)C)C3)c3cc(-c4c(C)ccc5[nH]ncc45)ccc3n2)C1` [Compound 32, 1-(3-(4-(3-(dimethylamino)aze-tidin-1-yl)-6-(5-methyl-1H-indazol-4-yl)quinazolin-2-yl)azetidin-1-yl)prop-2-en-1-one], the Binding % is reported as “+ (+ indicates binding activity up to 10%)”. In the case of `C=CC(=O)N1CC(Cc2nc3ccc(-c4cc(O)cc5ccccc45)cc3c(=O)n2CCCN(C)C)C1` [Compound 27, 2-((1-acryloylazetidin-3-yl)methyl)-3-(3-(dimethylamino)propyl)-6-(3-hydroxynaphthalen-1-yl)quinazolin-4(3H)-one], the Binding % is reported as “+ (+ indicates binding activity up to 10%)”. For `C=CC(=O)N1CC(c2nc(N3CCC(O)C3)c3cc(-c4cc(O)cc5ccccc45)ccc3n2)C1` (centres unmarked) [Compound 34, 1-(3-(6-(3-hydroxynaphthalen-1-yl)-4-(3-hydroxypyrrolidin-1-yl)quinazolin-2-yl)azetidin-1-yl)prop-2-en-1-one], the Binding % was “+ (+ indicates binding activity up to 10%)”. For `C=CC(=O)N1CC(c2nc3ccc(-c4cc(O)cc5ccccc45)cc3c(=O)[nH]2)C1` [Compound 1, 2-(1-acryloylazetidin-3-yl)-6-(3-hydroxynaphthalen-1-yl)quinazolin-4(3H)-one], the Binding % was “++ (++ indicates binding activity from 10 to 50%)”. `C=CC(=O)N1CC(c2nc3ccc(-c4cccc5[nH]nc(C)c45)cc3c(=O)n2CCCN(C)C)C1` [Compound 7, 2-(1-acryloylazetidin-3-yl)-3-(3-(dimeth-ylamino)propyl)-6-(3-methyl-1H-indazol-4-yl)quinazolin-4(3H)-one] was tested, and the Binding % was “+ (+ indicates binding activity up to 10%)”. `C=CC(=O)N1CC(c2nc3ccc(-c4cccc5[nH]nc(I)c45)cc3c(=O)n2CCCN(C)C)C1` [Compound 6, 2-(1-acryloylazetidin-3-yl)-3-(3-(dimeth-ylamino)propyl)-6-(3-iodo-1H-indazol-4-yl)quinazolin-4(3H)-one] was tested, and the Binding % was “+ (+ indicates binding activity up to 10%)”. `C=CC(=O)N1CC(c2nc(NCCc3ncccn3)c3cc(-c4c(C)ccc5[nH]ncc45)ccc3n2)C1` [Compound 33, 1-(3-(6-(5-methyl-1H-indazol-4-yl)-4-((2-(pyrimidin-2-yl)ethyl)amino)quin-azolin-2-yl)azetidin-1-yl)prop-2-en-1-one] was tested, and the Binding % was “+ (+ indicates binding activity up to 10%)”. For `C=CC(=O)N1CC(c2nc3ccc(-c4c(C)ccc5[nH]ncc45)cc3c(=O)n2CCCN(C)C)C1` [Compound 5, 2-(1-acryloylazetidin-3-yl)-3-(3-(dimethylamino)propyl)-6-(5-methyl-1H-indazol-4-yl)quinazolin-4(3H)-one], the Binding % was “++ (++ indicates binding activity from 10 to 50%)”. With `C=CC(=O)N1CC(c2nc(NC3CCN(C4CC4)CC3)c3cc(-c4c(C)ccc5[nH]ncc45)ccc3n2)C1` [Compound 31, 1-(3-(4-((1-cyclopropylpiperi-din-4-yl)amino)-6-(5-methyl-1H-indazol-4-yl)quinazolin-2-yl)azetidin-1-yl)prop-2-en-1-one] the Binding % was “+ (+ indicates binding activity up to 10%)”.
